Test results published in PubChem BioAssay AID248 (DTP/NCI, 2004).
Several values for one entry are separate records, joined by “and”; a condition that tells them apart may be missing. Identical values can stand only once. Toxic doses and inconclusive results are not listed. Rule as the data show it: active = T/C of 150% or more; inactive = T/C below 125%.

System: L1210 leukemia ip in BDF1 mice, survival T/C
Test: NCI In Vivo Anticancer Drug Screen. Data for tumor model L1210 Leukemia (intraperitoneal) in B6D2F1 (BDF1) mice
Conditions: endpoint: mean survival time, higher = longer survival
Procedure, shortened: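 In this screen, tumor-bearing mice given compound are compared to those given vehicle, and their survival values are reported as a treated-to-control quotient.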

[1] = dose: 100.0 mg/kg/injection, schedule: Q01DX009 (ip), vehicle: saline with Tween-80
[2] = dose: 200.0 mg/kg/injection, schedule: Q01DX009 (ip), vehicle: saline with Tween-80
[3] = dose: 400.0 mg/kg/injection, schedule: Q01DX009 (ip), vehicle: saline with Tween-80
[4] = dose: 200.0 mg/kg/injection, schedule: Q04DX003 (ip), vehicle: Klucel (hydroxypropylcellulose) (HPC)
[5] = dose: 400.0 mg/kg/injection, schedule: Q04DX003 (ip), vehicle: Klucel (hydroxypropylcellulose) (HPC)
[6] = dose: 100.0 mg/kg/injection, schedule: Q04DX003 (ip), vehicle: saline with Tween-80
[7] = dose: 200.0 mg/kg/injection, schedule: Q04DX003 (ip), vehicle: saline with Tween-80
[8] = dose: 400.0 mg/kg/injection, schedule: Q04DX003 (ip), vehicle: saline with Tween-80

Measured: T/C

N#CCc1nn(-c2ccccc2)c(N)c1C#N
inactive: dose: 25.0 mg/kg/injection, schedule: Q01DX001 (ip), vehicle: Klucel (hydroxypropylcellulose) (HPC) 93 % of control | dose: 50.0 mg/kg/injection, schedule: Q01DX001 (ip), vehicle: Klucel (hydroxypropylcellulose) (HPC) 100 % of control | dose: 100.0 mg/kg/injection, schedule: Q01DX001 (ip), vehicle: Klucel (hydroxypropylcellulose) (HPC) 107 % of control and 91 % of control | dose: 150.0 mg/kg/injection, schedule: Q01DX001 (ip), vehicle: Klucel (hydroxypropylcellulose) (HPC) 97 % of control

O=C(O)C1(Nc2ccc(-c3ccc(Br)cc3)cc2)CCCC1
inactive: dose: 50.0 mg/kg/injection, schedule: Q01DX001 (ip), vehicle: carboxymethylcellulose (CMC) 90 % of control | dose: 100.0 mg/kg/injection, schedule: Q01DX001 (ip), vehicle: carboxymethylcellulose (CMC) 90 % of control | dose: 200.0 mg/kg/injection, schedule: Q01DX001 (ip), vehicle: carboxymethylcellulose (CMC) 90 % of control | dose: 400.0 mg/kg/injection, schedule: Q01DX001 (ip), vehicle: carboxymethylcellulose (CMC) 90 % of control

CC(=O)Nc1ccc(OCCOC(=O)Nc2c(C)cccc2C)cc1
inactive: [1] 87 % of control | [2] 92 % of control | [3] 94 % of control

CN1CN(c2ccccc2)C2(CCN(CCCCCCC#N)CC2)C1=O
inactive: dose: 25.0 mg/kg/injection, schedule: Q04DX003 (ip), vehicle: Klucel (hydroxypropylcellulose) (HPC) 102 % of control | dose: 50.0 mg/kg/injection, schedule: Q04DX003 (ip), vehicle: Klucel (hydroxypropylcellulose) (HPC) 94 % of control | [4] 90 % of control | [5] 97 % of control

Nc1ccc2ccccc2c1-c1c(N)ccc2ccccc12
inactive: dose: 75.0 mg/kg/injection, schedule: Q04DX002 (ip), vehicle: saline with Tween-80 109 % of control | dose: 100.0 mg/kg/injection, schedule: Q04DX003 (ip), vehicle: Klucel (hydroxypropylcellulose) (HPC) 97 % of control | [4] 103 % of control | dose: 300.0 mg/kg/injection, schedule: Q04DX002 (ip), vehicle: saline with Tween-80 94 % of control | [5] 88 % of control

CC(C)=CCC/C(C)=C\C(N)=O
inactive: dose: 100.0 mg/kg/injection, schedule: Q01DX001 (ip), vehicle: saline 106 % of control | dose: 200.0 mg/kg/injection, schedule: Q01DX001 (ip), vehicle: saline 92 % of control | dose: 400.0 mg/kg/injection, schedule: Q01DX001 (ip), vehicle: saline 111 % of control

O=C(O)c1cccc2c1OCO2
inactive: dose: 50.0 mg/kg/injection, schedule: Q01DX009 (ip), vehicle: saline with Tween-80 112 % of control | [1] 98 % of control | dose: 100.0 mg/kg/injection, schedule: Q04DX002 (ip), vehicle: saline with Tween-80 103 % of control | [2] 98 % of control | dose: 200.0 mg/kg/injection, schedule: Q04DX002 (ip), vehicle: saline with Tween-80 95 % of control

CCOC(=O)C1C(O)CC2COC(=O)C2C1c1ccc(OC(C)=O)cc1 (stereo not given)
inactive: dose: 100.0 mg/kg/injection, schedule: Q01DX001 (ip), vehicle: other 100 % of control | dose: 200.0 mg/kg/injection, schedule: Q01DX001 (ip), vehicle: other 95 % of control

CCCCCCCNC(CC(C)C)C(=O)OCC (stereo not given)
inactive: dose: 25.0 mg/kg/injection, schedule: Q04DX002 (ip), vehicle: Klucel (hydroxypropylcellulose) (HPC) 91 % of control | dose: 50.0 mg/kg/injection, schedule: Q04DX002 (ip), vehicle: Klucel (hydroxypropylcellulose) (HPC) 97 % of control | dose: 100.0 mg/kg/injection, schedule: Q04DX002 (ip), vehicle: Klucel (hydroxypropylcellulose) (HPC) 94 % of control

CN(CCC#N)c1ccc(/C=C(\C#N)c2ccc(Br)cc2)cc1
inactive: dose: 100.0 mg/kg/injection, schedule: Q01DX009 (ip), vehicle: Klucel (hydroxypropylcellulose) (HPC) 94 % of control | dose: 200.0 mg/kg/injection, schedule: Q01DX009 (ip), vehicle: Klucel (hydroxypropylcellulose) (HPC) 94 % of control | dose: 400.0 mg/kg/injection, schedule: Q01DX009 (ip), vehicle: Klucel (hydroxypropylcellulose) (HPC) 96 % of control

NC(=NC1CCC(C2CCC(N)CC2)CC1)C(N)=NC1CCC(C2CCC(N)CC2)CC1 (stereo not given)
inactive: [1] 98 % of control | [6] 100 % of control | [2] 98 % of control | [7] 91 % of control | [3] 98 % of control | [8] 95 % of control

C#CC1(OCC2CO2)CCCCC1 (stereo not given)
inactive: dose: 50.0 mg/kg/injection, schedule: Q01DX009 (ip), vehicle: saline 97 % of control | dose: 50.0 mg/kg/injection, schedule: Q04DX003 (ip), vehicle: saline with Tween-80 100 % of control | dose: 100.0 mg/kg/injection, schedule: Q01DX009 (ip), vehicle: saline 117 % of control | [6] 101 % of control | dose: 200.0 mg/kg/injection, schedule: Q01DX009 (ip), vehicle: saline 101 % of control | [7] 103 % of control | dose: 400.0 mg/kg/injection, schedule: Q01DX009 (ip), vehicle: saline 94 % of control | [8] 100 % of control
